Data: patent US20140303109A1 (priority 2010, published 2014)
Where two headings read alike, the source gives them in different places.

Experiments:
[1] = tested on: BxPC-3 cells; test: MTT cell viability, BxPC-3 (gemcitabine-sensitive); format: cell-based, human; details: 0.1-4.0 μMol/L
Procedure: Cell growth was assessed by an MTT assay in a manner similar to that as described above. The color intensity was measured by a TECAN microplate fluorometer (Tecan Group, LTD, Research Triangle Park, N.C.) at 595 nm.

[2] = tested on: pancreatospheres of AsPC-1 cells; test: Sphere formation assay; format: cell-based, human; details: AsPC-1, varying concentrations
Procedure: A sphere formation assay was conducted for 1 week (FIG. 19A) and four weeks (FIG. 19B) to examine the effect of the treating agents on the CSC self-renewal capacity of the PC cell line AsPC-1. […] Therefore, it appears that CDF may cause pancreatospheres to be more sensitive to GEM, and as a result, CDF, or the combination of CDF/GEM, would be useful for targeted killing of CSCs.
Furthermore, pretreatment with CDF improved the outcome.

[3] = tested on: COX-2, PTEN expression; test: Western blot of COX-2 and PTEN in tumor remnants; format: in vivo, mice; details: MIAPaCa-2 tumors
Procedure: COX-2, PTEN, and β-actin expression was determined by Western blot.

[4] = tested on: MIAPaCa-2 tumors; test: MIAPaCa-2 subcutaneous xenograft tumor model; format: in vivo, mice; details: CDF or CUR 5 mg/mouse/day intragastric 12 days; GEM 1 mg/mouse i.v. x3
Procedure: Female CB17 SCID mice 4 wks old were purchased from Taconic Farms (Germantown, N.Y.). Small fragments of the MIAPaCa-2 xenograft were implanted subcutaneously and bilaterally into mice. […] Tumor measurements and changes in weight were performed and tissue was stored at −70° C. for RNA and protein extraction.

[5] = tested on: NF-κB DNA binding activity; test: EMSA for NF-κB DNA binding activity in tumor tissue; format: in vivo, mice; details: MIA PaCa-2 tumors
Procedure: Nuclear extracts were prepared from tumor tissue induced by the MIA PaCa-2 cells using an homogenizer with 400 μl of ice cold lysis buffer extracted as described earlier. EMSA was performed using the Odyssey Infrared Imaging System with NF-κβ 1RDye labeled oligonucleotide from LI-COR, Inc. (Lincoln, Nebr.). An NF-Kβ competition control study was conducted using unlabeled NF-Kβ consensus oligonucleotide. The samples were loaded and run at 30 mA for 1 hour. The gel was scanned using Odyssey Infrared Imaging System (LI-COR, Inc.).

[6] = tested on: NF-κB DNA binding activity; test: EMSA for NF-κB DNA binding activity, three PC lines; format: cell-based, human; details: 72 h; CDF/CUR 1 or 4 μMol/L, GEM 10 nMol/L
Procedure: The DNA binding activity of the nuclear transcription factor, NF-κB was assessed in the BxPC-3, MIAPaCa-E, and MIAPaCa-M cell lines by EMSA. […] The cells were lysed in 400 μl of lysis buffer and the reaction was set up as described earlier in Ali, et al., id. The gel was scanned using an Odyssey Infrared Imaging System, (LI-COR, Inc., Lincoln, Nebr.). Equal protein loading was ensured by immunoblotting 10 μg of nuclear protein and probing with anti-retinoblastoma antibody.

[7] = tested on: AsPC-1 and MIAPaCa-2 cells; test: Clonogenic assay, parental lines; format: cell-based, human; details: 4 μmol/L CUR or CDF, 20 nmol/L GEM
[8] = tested on: pancreatosphere-derived tumor cells; test: Pancreatosphere formation by pancreatosphere-derived tumor cells; format: cell-based; details: cells harvested from pancreatosphere-derived tumors
Description: Pancreatospheres (5,000) derived from MIAPaCa-2 cells were isolated and implanted in mice with 1:1 matrigel. […] RNA was extracted from the tumor tissue and assayed.
The animal was euthanized after 30 days because of tumor burden and photographed.

[9] = tested on: VEGF; test: AlphaLISA VEGF secretion; format: cell-based, human; details: 72 h; MIAPaCa-E and MIAPaCa-M
Description: The effect of CDF on another downstream transcriptional target of NF-κβ, vascular endothelial growth factor (VEGF) secretion, was studied in the three human pancreatic cell lines.

[10] = tested on: PGE2; test: PGE2 immunoassay of conditioned medium, BxPC-3 and MIA PaCa-2; format: cell-based, human; details: 24 h
Procedure: The conditioned medium was collected and analyzed for PGE2 concentration, according to the manufacture's protocol, using a PGE2 high sensitivity immunoassay kit purchased from R & D Systems, Minneapolis, Minn. The optical density was measured at 450 nm and the concentration of PGE2 was calculated from the standard curve.

[11] = tested on: pancreatospheres of AsPC-1, AsPC1-GTR, MIAPaCa-2, and MIAPaCa-2-GTR cells; test: Sphere disintegration assay; format: cell-based, human; details: 5 days treatment of 10-day spheres
Description: After allowing 10 days to generate the formation of pancreatospheres, the cells were subjected to the treating agent for 5 days.

[12] = tested on: miR-21; test: Real-time RT-PCR of miR-21 in PC cell lines; format: cell-based, human; details: 72 h; BxPC-3, MIAPaCa-E, MIAPaCa-M
Procedure: The expression of miRNAs (miRNA-200a, miR-200b, and miR-21) in all three pancreatic cancer cell lines, was measured with a TaqMan MicroRNA Assay kit (Applied Biosystems, Carlsbad, Calif.) following the manufacturer's protocol. […] Total RNA was extracted, and 5 ng of each sample were reverse-transcribed in a method described by Li, et al., Cancer Res., Vol. 69, pages 6704-6712 (2009). Real-time RT-PCR reactions were then carried out in a total volume of 25 μl reaction mixture, as described by Li, et al., id., using Smart Cycler II (Cepheid, Sunnyvale, Calif.). The data were analyzed using Ct method and were normalized by RNU6B expression in each sample.

[13] = tested on: human colon cancer HCT 116 cells; test: MTT assay, HCT 116 cell growth; format: cell-based; details: read-out: inhibition on cell proliferation
Procedure: The concentrations were 10 μM, 20 μM, and 30 μM. After aspiration of growth medium, (3-(4,5-Dimethylthiazol-2-yl)-2,5-diphenyltetrazolium bromide (MTT; 1 mg/ml) was added to the cell cultures, followed by incubation for 3 hours at 37° C. After the cells were crystallized, the MTT was removed and dimethylsulfoxide (DMSO) was added to dissolve the metabolized MTT product. The absorbance was then measured on a Wallac Victor^3 1420 Multi-label counter at 540 nm.

[14] = tested on: rabbit 20S proteasome; test: Chymotrypsin-like activity of purified 20S proteasome (Suc-LLVY-AMC); format: biochemical
Description: Purified rabbit 20S proteasome and a fluorogenic substrate Suc-LLVY-AMC for the proteasomal chymotrypsin-like activity were obtained from Calbiochem Inc. (San Diego, Calif.).

[15] = oral 1 g/kg body wt., mouse; cited from earlier work

## COc1cc(/C=C/C(=O)C(=Cc2ccc(F)c(F)c2)C(=O)/C=C/c2ccc(O)c(OC)c2)ccc1O [CDF, (1E,6E)-1,7-bis(4-hydroxy-3-methoxyphenyl)hepta-1,6-diene{4(3,4 difluorobenzaldehyde)}-3,5-dione]
[1]
  cell viability: significant reduction in cell viability
[2]
  2nd passage of pancreatospheres: inhibited 2nd passage of pancreatospheres in a dose-dependent manner
[3]
  expression of PTEN in tumor remnants: up-regulated
[4]
  tumor growth: significantly inhibited tumor growth
[5]
  NF-κβ activation in tumor tissue: down-regulated NF-κβ activation
[6]
  NF-κβ DNA binding activity: significant inhibition in the DNA binding activity of NF-κβ in all three cell lines
[7]
  clonogenicity: significant reduction in clonogenicity
[8]
  formation of new pancreatospheres: significant inhibition in the formation of new pancreatospheres
[9]
  secreted levels of VEGF: significant inhibition of secreted levels of VEGF
[10]; BxPC-3 cells, 1 μM
  PGE2 level in conditioned medium: significant decrease in PGE2 level
[10]; MIAPaCa-2 cells, 4 μM
  PGE2 level in conditioned medium: significant decrease in PGE2 levels
[11]
  disintegration of pancreatospheres: remarkably increased disintegration of pancreatospheres
[12]
  expression of miR-21: significant reduction in the expression of miR-21
[13]; HCT-116, 10 μM, 24 h
  inhibition at 10 µM: 24%
[13]; HCT-116, 20 μM, 24 h
  inhibition at 20 µM: 39%
[13]; HCT-116, 30 μM, 24 h
  inhibition at 30 µM: 68%

## COc1cc(/C=C/C(=O)CC(=O)/C=C/c2ccc(O)c(OC)c2)ccc1O [CUR, (1E,6E)-1,7-bis(4-hydroxy-3-methoxyphenyl)hepta-1,6-diene-3,5-dione, reference compound]
[14]; 10 μM
  proteasome inhibition: 70%
[14]; 1-10 μM, 2 h 37° C.
  inhibition of chymotrypsin-like activity of the proteasome: 20-70%
[15]
  Cmax: 220 ng/mL
[6]
  NF-κβ DNA binding activity: much lower effects on NF-κβ DNA binding activity than the CDF-treated cells
[7]
  clonogenicity: significant reduction in clonogenicity
[10]; MIAPaCa-2 cells, 4 μM
  PGE2 level in conditioned medium: significant decrease in PGE2 levels
[13]; HCT-116, 24 h
  inhibition at 10 µM: 24%
  inhibition at 20 µM: 53%
  inhibition at 30 µM: 49%
